The results in this text go back to US9090633B2, “Substituted 4-(arylamino) selenophenopyrimidine compounds and methods of use thereof” (KASINA LAILA INNOVA PHARMACEUTICALS PRIVATE LIMITED, priority 2010, dated 2013).

Experiment [1] concerns human Hepatocellular carcinoma HepG2 cells. In words: MTT based cell proliferation assay, HepG2. As to the method: (§1) MTT [3-(4,5-dimethylthiazol-2-yl)-2,5-diphenyltetrazolium bromide incorporation based cell proliferation assay was performed using standard procedure. […] The assay was carried out according to the instructions provided by the vendor. […] Vehicle control culture wells received only a maximum of 0.5% DMSO. Thereafter, 0.5 mg/ml of MTT reagent was added to each well and the microplate was incubated further for 4 h at 37° C. in presence of 5% CO2. Finally, the cells were solubilized by adding solubilizing solution and allowed to incubate at 37° C. overnight. After complete solubilization of the formazan crystals the absorbance was read at 540 nm in a microplate reader (BioRad, USA).
(§2) The evaluation of cell proliferation inhibitory activities of the compounds was done in two phases—(1) Screening, and (2) half-maximal inhibitory concentration (IC50) determination. In the screening phase, the cells were treated with different concentrations.

For experiment [2], the system named is human lung carcinoma A549 cells. In words: MTT based cell proliferation assay, A549. The conditions noted are these: for IC50: A549, 72 h, read-out: Cell proliferation inhibition in A549 (Lung carcinoma), IC50. As to the method:
as §1, §2

Experiment [3] has as its system human colorectal carcinoma HT29 cells. In words: MTT based cell proliferation assay, HT29. The conditions noted are these: for IC50: HT-29, 72 h, read-out: Cell proliferation inhibition in HT29 (Colon carcinoma), IC50. As to the method:
as §1, §2

Experiment [4] has as its system human breast carcinoma (estrogen receptor negative) MDA-MB-231 cells. In words: MTT based cell proliferation assay, MDA-MB-231. As for the experimental part: as §1, §2
The subject of experiment [5] is human cervical carcinoma HeLa cells. In words: MTT based cell proliferation assay, HeLa. As to the method: as §1, §2
Experiment [6] has as its system human prostate DU145 cells. In words: MTT based cell proliferation assay, DU145. The conditions noted are these: for IC50: DU-145, 72 h, read-out: Cell proliferation inhibition in DU145 (Prostate carcinoma), IC50. As to the method:
as §1, §2

[7] abbreviates: Homo sapiens, HT-29, read-out: Cell proliferation inhibition in HT29 (Colon carcinoma).

Turning to `CN(c1ccc(Cl)cc1)c1ncnc2[se]c3c(c12)CCNC3` [Compound 33], the “more potent than Gefitinib (Iressa) in inhibiting tumor cells proliferation” value in experiment [1] (HepG2, from IC50 values) was determined as 241%; in experiment [2] (A549, from IC50 values), 101%; in experiment [3] (HT29, from IC50 values) it was 257.8%; in experiment [4] (MDA-MB-231, from IC50 values) it was 122%; in experiment [5] (from IC50 values) it was 117%; in experiment [6] (DU145, from IC50 values), 6.8%. Moreover, the IC50 was determined as 10.4 µM in experiment [1] (Homo sapiens, HepG2, 72 h, read-out: Cell proliferation inhibition (IC50) in HepG2 (Hepatocellular Carcinoma)); 28.4 µM in experiment [2] (Homo sapiens); 13.1 µM in experiment [3] (Homo sapiens); 20.4 µM in experiment [4] (Homo sapiens, MDA-MB-231, 72 h, read-out: Cell proliferation inhibition (IC50) in MDA-MB-231 (Breast Carcinoma)); 23.1 µM in experiment [5] (Homo sapiens, 72 h, read-out: Cell proliferation inhibition (IC50) in HeLa (Cervical Carcinoma)); 29.5 µM in experiment [6] (Homo sapiens).
`Fc1ccc(Nc2ncnc3c4c([se]c23)CCCC4)cc1Cl` [Compound 27, (3-chloro-4-fluorophenyl)-6,7,8,9-tetrahydrobenzo[1,2-d]pyrimidino[5,6-b]selenophen-4-ylamine]: the IC50 in experiment [2] (Homo sapiens) stood at 33.5 µM; in experiment [3] (Homo sapiens), 117 µM; in experiment [6] (Homo sapiens) it was 11.4 µM.
Turning to `Brc1cc(Nc2ncnc3[se]c4c(c23)CCCC4)c(Br)s1` [Compound 6], the IC50 in experiment [2] (Homo sapiens) was 49 µM; in experiment [6] (Homo sapiens), 42.4 µM. The inhibition at 18.868 µM in experiment [3] (setting [7]) came out at 15.5%.
For “ethyl 4-[(3-chloro-4-fluorophenyl)amino]-5-methylthioselenopheno[3,4-d]pyrimidine-7-carboxylate [Compound 32]”, the “Cell proliferation inhibition in A549 (Lung carcinoma)” value in experiment [2] (at 25 μM) stood at 26.1% at 25 μM. Moreover, in experiment [3] (at 25 μM), the “Cell proliferation inhibition in HT29 (Colon carcinoma)” value worked out at 12.97% at 25 μM. Further, the “Cell proliferation inhibition in DU145 (Prostate carcinoma)” value in experiment [6] (at 25 μM) amounted to 9.75% at 25 μM.
As for `Cc1[se]c2ncnc(Nc3ccc(F)c(Cl)c3)c2c1-c1ccccc1` [Compound 16], the figures for the IC50 in experiment [2] (Homo sapiens) and in experiment [6] (Homo sapiens) were 44.1 µM and 111 µM, respectively. Besides, in experiment [3] (setting [7]), the inhibition at 66.079 µM worked out at 38.6%.
For the molecule `Clc1ccc(Nc2ncnc3[se]c4c(c23)CCNC4)cc1Cl` [Compound 22, (3,4-dichlorophenyl)-5,6,7,8-tetrahydropyrimidino[5′,6′-5,4]selenopheno[2,3-c]pyridin-4-ylamine], the inhibition at 22.935 µM stood at 16.7% in experiment [2] (Homo sapiens, A549, read-out: Cell proliferation inhibition in A549 (Lung carcinoma)); 28.4% in experiment [3] (setting [7]); 36.6% in experiment [6] (Homo sapiens, DU-145, read-out: Cell proliferation inhibition in DU145 (Prostate carcinoma)).
